Data from publication PMC10693969 (Parasites, Hosts and Diseases, 2023).
Where two headings read alike, the source gives them in different places.

Legend:
[1] = system: A. castellanii (ATCC-30868) trophozoites; experiment: In vitro anti-Acanthamoeba activity, A. castellanii trophozoite viability; assay type: cell-based; settings: for IC50: mean±SD of 3 independent experiments; for SI, sensitivity index (CC50 C6 glial cells / IC50 A. castellanii): ratio CC50 C6 glial cells / IC50 A. castellanii; for antiamoebic activity against A. castellanii (in words): in vitro
[2] = Cytotoxicity against C6 glial cells; assay type: cell-based, rat; settings: rat, C6 glial cells
[3] = system: Naegleria fowleri trophozoites (Carter NF69 strain, ATCC 30215); experiment: In vitro anti-N. fowleri activity, trophozoite viability; assay type: cell-based; settings: for IC50: mean±SD of 3 independent experiments; for SI, sensitivity index (CC50 C6 glial cells / IC50 N. fowleri): ratio CC50 C6 glial cells / IC50 N. fowleri
[4] = system: A. polyphaga (ATCC-30461) trophozoites; experiment: In vitro anti-Acanthamoeba activity, A. polyphaga trophozoite viability; assay type: cell-based; settings: for IC50: mean±SD of 3 independent experiments; for SI, sensitivity index (CC50 C6 glial cells / IC50 A. polyphaga): ratio CC50 C6 glial cells / IC50 A. polyphaga; for antiamoebic activity against A. polyphaga (in words): in vitro
[5] = system: A. castellanii trophozoites; settings: cited from earlier work
[6] = system: C6 rat glial cells (ATCC CCL-107); experiment: Cytotoxicity against C6 glial cells; assay type: cell-based; settings: read-out: C6 glial cells (CC50 ±SD); C6 rat glial cells, 0–400 μM; mean±SD of 3 independent assays
[7] = Acanthamoeba castellanii, ATCC30868, 48 h, read-out: A. castellanii (IC50 ±SD, μM), trophozoites, 0–400 μM, 25°C, 48 h
[8] = Naegleria fowleri, ATCC30215, 48 h, read-out: N. fowleri (IC50 ±SD, μM), trophozoites, 0–400 μM, 37°C, 48 h
[9] = Acanthamoeba polyphaga, ATCC30461, 48 h, read-out: A. polyphaga (IC50 ±SD, μM), trophozoites, 0–400 μM, 25°C, 48 h
[10] = read-out: A. castellanii (IC50 ±SD), trophozoites, 0–400 μM, 25°C, 48 h
[11] = read-out: A. polyphaga (IC50 ±SD), trophozoites, 0–400 μM, 25°C, 48 h
[12] = read-out: N. fowleri (IC50 ±SD), trophozoites, 0–400 μM, 37°C, 48 h

Compound	IC50 [1, 7] [µM]	SI, sensitivity index (CC50 C6 glial cells / IC50 A. castellanii) [1]	CC50 [2] [µM]	IC50 [3, 8] [µM]	SI, sensitivity index (CC50 C6 glial cells / IC50 N. fowleri) [3]	IC50 [4, 9] [µM]	SI, sensitivity index (CC50 C6 glial cells / IC50 A. polyphaga) [4]	antiamoebic activity against A. castellanii (in words) ([1]; trophozoites)	antiamoebic activity against A. polyphaga (in words) ([4]; trophozoites)	IC50 [1, 10] [µM]	IC50 [4, 11] [µM]	toxicity to A. castellanii trophozoites (in words) [5]	SI, sensitivity index (CC50 C6 glial cells / IC50 A. castellanii) ([1]; listed as rosmarinic acid)	antiamoebic activity against N. fowleri (in words) ([3]; trophozoites, in vitro)	SI, sensitivity index (CC50 C6 glial cells / IC50 A. polyphaga) ([4]; listed as rosmarinic acid)	IC50 ([4]; read-out: A. polyphaga (IC50 ±SD), trophozoites, 0–400 μM, 25°C, 48 h, listed as rosmarinic acid) [µM]	CC50 [6] [µM]	IC50 [3, 12] [µM]	IC50 ([1]; read-out: A. castellanii (IC50 ±SD), trophozoites, 0–400 μM, 25°C, 48 h, listed as silybin (A+B)) [µM]	IC50 ([4]; read-out: A. polyphaga (IC50 ±SD), trophozoites, 0–400 μM, 25°C, 48 h, listed as silybin (A+B)) [µM]
CCCCCCCCCCCCCCCCOP(=O)([O-])OCC[N+](C)(C)C [Miltefosine, miltefosine, reference compound]	213.2 ± 1.22	>1.15	> 245	153.3 ± 1.3	>1.60	227.5 ± 0.36	>1.08													
O=c1c(O)c(-c2ccc(O)c(O)c2)oc2cc(O)cc(O)c12 [Quercetin, quercetin]	> 330		> 330	> 330		320.8 ± 0.33	>1.03	did not exhibit potential or selective antiamoebic activity	did not exhibit potential or selective antiamoebic activity											
Oc1ccc(/C=C/c2cc(O)cc(O)c2)cc1 [Resveratrol, resveratrol]	< 50	5.52	220.78 ± 0.09	47.19 ± 0.36	4.68	< 50	7.04			40.03 ± 0.39	31.35 ± 0.08	toxic								
O=C(/C=C/c1ccc(O)c(O)c1)O[C@H](Cc1ccc(O)c(O)c1)C(=O)O [Rosmarinic acid, rosmarinic acid]	< 50	>8.77	> 278	77.7 ± 0.97	>3.57		>12.38			31.66 ± 0.31	22.4 ± 0.78		> 8	did not show significative anti-N. fowleri activities	> 8	< 50				
(+)-pinostrobin								did not exhibit potential or selective antiamoebic activity	did not exhibit potential or selective antiamoebic activity	> 370	> 370						> 370	> 370		
(±)-catechin hydrate								did not exhibit potential or selective antiamoebic activity	did not exhibit potential or selective antiamoebic activity	> 345	> 345						> 345	> 345		
silybin (A+B) mixture		4.08			4.13		6.31			24.5 ± 0.56	15.82 ± 0.06						99.89 ± 0.78	24.2 ± 0.27	< 50	< 50
